Values after ≈ are worked out from the molar mass of the structure shown.
Columns and labels:
[1] = Thermal and chemical stability; assay type: physicochemical; details: for chemical stability in acid: aq. 1 M HCl; for chemical stability in acid / chemical stability in base / stability on storage: room temperature; for chemical stability in acid / chemical stability in base: 1 h; for chemical stability in base: aq. 1 M NaOH; for thermal stability: heating at 100 °C for five minutes; for stability on storage: in air, closed vials, one year, 1H NMR
Source text: We also examined the thermal and chemical stability of the synthesized 2-oxabicyclo[2.2.2]octanes. As representative examples, we selected three molecules: isomeric acids 47, 54, and amine 52. All 2-oxabicyclo[2.2.2]octanes were crystalline solids that were stable in air. We stored them in stock at room temperature in closed vials and observed no changes according to ^1H NMR after one year. […] Treatment of the selected 2-oxabicyclo[2.2.2]octanes with aq. 1 M HCl, or aq.

[2] = Determination of pKa values (potentiometric titration); assay type: physicochemical; details: methanol-water (1:4) solution of NaCl; titration method; potentiometric acid-base titration at 25 °C in methanol-water (1:4), 150 mM NaCl; read-out: pKa (exp.)
Procedure: Data is obtained by the titration method. Para-methyl benzoic acid (83) is used as a reference. TEXT PRINTED IN THE PICTURE: 83: pKa (exp.): 4.5 ± 0.1 | 84: pKa (exp.): 5.6 ± 0.1 | 47: pKa (exp.): 4.4 ± 0.1 | 54: pKa (exp.): 4.1 ± 0.1 […]
Determination of pKa values
The tendency of a compound to donate proton is measured as its acid ionization constant (dissociation constant), or Ka. A more practical scale of representing acidity is pKa which is the negative logarithm of the Ka (pKa = -log Ka). pKa of a test article is determined by pH-metric method based on potentiometric acid-base titration at 25 °C. The test compounds are dissolved in acidified methanol-water (1:4) solution of NaCl (150 mM, pH 2) and slowly titrated with 0.3 M sodium hydroxide methanol-water (1:4) solution, while recording pH of the solution as a function of NaOH volume used during the titration (construction of the titration curve). Titration of acidified NaCl solution in absence of any compounds is used for blank plotting.5-8 Buffering capacity is calculated in each point of titration curve as the ratio of the NaOH flow (constant) to the pH rise velocity. The pKa value is determined from resulting plot of buffering capacity versus pH as the maximum of buffering capacity. pH-metric method allows to measure pKas in the range of approximately between 2 and 12. […]
meter, pHi®510 (Beckman Coulter, Canada; Cat# A58734). Data analysis was done using GraphPad […]
Sodium hydroxide (Enamine, Ukraine; CAS # 1310-73-2)
Sodium chloride BioXtra, ≥99.5% (AT) (Sigma-Aldrich, USA; Cat # S7653)
Hydrochloric acid (Enamine, Ukraine; CAS # 7647-01-0)
Disposable pipette tips (Eppendorf, German; Matrix and Finntip, Thermo, USA) Polypropylene graduated conical tubes, 50 mL (Kartell, Italy; Cat. # 84002) Polypropylene syringe (10 mL) with tubing (Hemoplast, Ukraine) […]
pH-meter, pHi®510 (Beckman Coulter, Canada; Cat# A58734)
Multichannel Electronic Pipettes 5-50 µL, 10-1000 µL (Thermo, USA)
Magnetic stirrer standard unit (IKA, USA)
Syringe Driver Mdl 100 (KDScientific, USA)

[3] = tested on: human liver microsomes; details: both, 2 µM, pH 7.4
[4] = Kinetic solubility in phosphate-buffered saline, pH 7.4; details: pH 7.4

| SMILES | chemical stability in acid [1] | chemical stability in base [1] | thermal stability [1] | stability on storage [1] | pKa [2] | also measured |
| --- | --- | --- | --- | --- | --- | --- |
| CC12CCC(C(=O)O)(CC1)CO2 [Compound 47] | no decomposition | no decomposition | remained stable | no changes | 4.4 |  |
| CC12CCC(C(=O)O)(CC1)OC2 [Compound 54] | no decomposition | no decomposition | remained stable | no changes | 4.1 |  |
| Cc1ccc(C(=O)O)cc1 [Compound 83, para-methyl benzoic acid, reference compound] |  |  |  |  | 4.5 |  |
| CC12CCC(C(=O)O)(CC1)CC2 [Compound 84, reference compound] |  |  |  |  | 5.6 |  |
| O=C(O)Cc1ccccc1Nc1c(Cl)cccc1Cl [Diclofenac] |  |  |  |  |  | kel (elimination constant) [3]: 0.119 min⁻¹; % Remaining, Mean of 2 ([3]; microsomes, 7 min): 49%; % Remaining without cofactor, Mean of 2 ([3]; microsomes, 40 min): 91% |
| Cc1nccn1CC1CCc2c(c3ccccc3n2C)C1=O (stereo not shown) [Ondansetron, reference compound] |  |  |  |  |  | solubility kinetic at 2 h [4]: 126 µM (≈ 37 µg/mL) |

From article PMC10545790
